# Reference: patent publication US20260200942A1, “PARP7 INHIBITORS AND THEIR APPLICATIONS” (CHONGQING PHARSCIN INNOBIO CO., LTD., priority 2023, published 2026)
# Legend:
# [1] = target: T1, PARP7 (Homo sapiens, UniProt Q7Z3E1); assay: PARP7 inhibitory activity assay (histone-coated 384-well plate, chemiluminescence); format: biochemical
# T1 construct: purchased BPS 80527
# T1 sequence (Q7Z3E1 1-657): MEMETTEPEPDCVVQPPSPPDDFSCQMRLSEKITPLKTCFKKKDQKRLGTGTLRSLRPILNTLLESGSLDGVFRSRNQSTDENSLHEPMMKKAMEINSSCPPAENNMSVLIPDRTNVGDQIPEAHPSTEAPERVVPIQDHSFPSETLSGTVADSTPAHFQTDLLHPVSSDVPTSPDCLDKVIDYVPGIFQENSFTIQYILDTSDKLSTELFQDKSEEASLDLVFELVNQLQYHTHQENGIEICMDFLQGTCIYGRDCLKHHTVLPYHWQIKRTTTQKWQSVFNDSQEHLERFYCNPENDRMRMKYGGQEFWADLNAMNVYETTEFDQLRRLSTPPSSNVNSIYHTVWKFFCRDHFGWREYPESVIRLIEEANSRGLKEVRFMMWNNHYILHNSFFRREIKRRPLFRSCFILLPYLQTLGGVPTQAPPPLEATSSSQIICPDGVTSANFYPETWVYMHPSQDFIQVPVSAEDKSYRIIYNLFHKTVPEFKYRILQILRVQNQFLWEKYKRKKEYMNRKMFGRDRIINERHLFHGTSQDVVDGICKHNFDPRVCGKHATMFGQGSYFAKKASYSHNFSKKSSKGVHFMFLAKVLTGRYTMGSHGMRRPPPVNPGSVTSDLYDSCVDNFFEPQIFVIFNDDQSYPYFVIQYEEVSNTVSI
# Description: Inhibition rate (%) calculation formula: […]
# [2] = Liver microsomal stability study, rat; format: in vitro ADME; settings: Rat liver microsomes
# Protocol: (§1) The above compounds were diluted to a 1.5 μM intermediate working solution with 0.1 M potassium phosphate buffer containing 0.75 mg/mL liver microsomes, and then 30 μL of the intermediate working solution was dispensed into reaction plates for different time points (0, 5, 15, 30, 45, 60 min). 150 μL of methanol solution containing internal standard was added to the 0 min plate wells. For the other time points (5, 15, 30, 45, 60 min), the sample plates were pre-incubated at 37° C. for 5 min, after which the reaction was initiated with 15 μL of 6 mM NADPH solution and timing was started. 15 μL of 6 mM NADPH solution was added to the 0 min samples to balance the system. At 5 min, 15 min, 30 min, 45 min, and 60 min, respectively, 150 μL of methanol solution containing internal standard was added to the reaction wells to terminate the reaction. After the reaction was complete, the plates were shaken on a shaker at 600 rpm for 10 min, then centrifuged at 4000 rpm for 15 min. 80 μL of supernatant from each well was transferred to a 96-well sample plate containing 150 μL of ultrapure water, mixed, and then analyzed by LC/MS to calculate T1/2.
# [3] = Liver microsomal stability study, mouse; format: in vitro ADME; settings: Mouse liver microsomes
# Protocol: as §1
# [4] = Liver microsomal stability study, human; format: in vitro ADME; settings: Human liver microsomes
# Protocol: as §1
# [5] = Mouse pharmacokinetic study; format: in vivo; settings: BALB/c mice; for AUC(0-t) / Cmax / Tmax / half-life: female, mouse, plasma
# Description: • (1) Study design: Female healthy Balb/c mice (specific pathogen-free (SPF) grade) were used as test animals, divided into 2 dose groups with 3 mice in each group, for single intravenous injection and single oral gavage administration, respectively. The vehicle formulations were […] (DMSO)+10% Solutol+85% Saline and 0.5% methylcellulose (MC), respectively. • (2) Plasma sample collection and processing: Blood was collected from the orbital venous plexus of the mice. After intravenous (IV) bolus administration, samples were collected at 0.083 h, 0.25 h, 0.5 h, 1 h, 2 h, 4 h, 8 h, and 24 h. After oral (PO) administration, samples were collected at 0.25 h, 0.5 h, 1 h, 2 h, 4 h, 6 h, 8 h, and 24 h. An appropriate volume of whole blood samples was collected with EDTA-K2 anticoagulation, placed on wet ice after collection, and plasma was separated by centrifugation within 30 min (centrifugation conditions: 4000 rpm, 10 minutes, 2-8° C.). The collected plasma samples were stored in a −70° C. freezer before analysis. After analysis, the remaining plasma samples continued to be stored in a −70° C. freezer. • (3) Analytical batch processing and pharmacokinetic parameter calculation: The concentration of the test substance in the plasma samples was determined. The accuracy of quality control samples was evaluated concurrently with the analysis of the samples, with the requirement that more than 66.7% of the quality control samples have an accuracy between 80-120%. Using the plasma concentration data at different time points, pharmacokinetic parameters such as C0 (IV), Area Under the Curve (AUC)(0-t), T1/2, Cmax, Tmax, and Mean Residence Time (MRT) were calculated using WinNonlin.
# [6] = target: T2, PARP2 (Homo sapiens, UniProt Q9UGN5); assay: PARP2 inhibitory activity assay (BPS PARP2 Chemiluminescent Activity Assay Kit); format: biochemical
# T2 construct: purchased BPS Bioscience
# T2 sequence (Q9UGN5 whole entry): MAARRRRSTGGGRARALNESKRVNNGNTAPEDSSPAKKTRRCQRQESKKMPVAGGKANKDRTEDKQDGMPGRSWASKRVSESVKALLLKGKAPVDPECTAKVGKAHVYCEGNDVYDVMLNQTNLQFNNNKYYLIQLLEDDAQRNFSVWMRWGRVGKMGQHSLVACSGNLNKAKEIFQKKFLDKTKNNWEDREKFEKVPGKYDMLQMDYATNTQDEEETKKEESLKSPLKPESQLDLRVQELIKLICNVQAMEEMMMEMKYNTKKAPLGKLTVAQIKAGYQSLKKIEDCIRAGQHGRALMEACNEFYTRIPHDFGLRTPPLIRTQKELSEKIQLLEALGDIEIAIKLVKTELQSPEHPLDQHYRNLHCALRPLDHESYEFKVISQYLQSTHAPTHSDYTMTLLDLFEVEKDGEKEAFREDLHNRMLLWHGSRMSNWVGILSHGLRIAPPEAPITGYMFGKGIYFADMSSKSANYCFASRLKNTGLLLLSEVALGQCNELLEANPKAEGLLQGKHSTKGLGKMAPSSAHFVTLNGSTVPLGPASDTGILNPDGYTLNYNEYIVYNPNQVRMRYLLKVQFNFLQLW
# Description: The PARP2 enzyme activity assay method used in the present disclosure employs reagents from the PARP2 Chemiluminescent Activity Assay Kit from BPS Bioscience, USA. […] The test results are shown in Table 1. /” indicates not tested.
IC50 [1] [nM],half-life at 1 µM [2] [h],half-life at 1 µM [3] [h],half-life at 1 µM [4] [h],"F ([5]; PO, 10 mg/kg, 0.5% MC) [%]","AUC(0-t) ([5]; IV, 1 mg/kg) [ng·h/mL]","Cmax ([5]; IV, 1 mg/kg) [ng/mL]","Tmax ([5]; IV, 1 mg/kg) [h]","half-life ([5]; IV, 1 mg/kg) [h]","AUC(0-t) ([5]; PO, 10 mg/kg, 0.5% MC) [ng·h/mL]","Cmax ([5]; PO, 10 mg/kg, 0.5% MC) [ng/mL]","Tmax ([5]; PO, 10 mg/kg, 0.5% MC) [h]","half-life ([5]; PO, 10 mg/kg, 0.5% MC) [h]",IC50 [6] [nM],SMILES
10 to 100,> 1,> 1,> 1,59.45,1790,1200,0.08,0.89,10700,7060,0.25,0.81,,O=c1[nH]nc(CN[C@H]2C[C@H](C(=O)N3CCN(c4ncc(C(F)(F)F)cn4)CC3)C2)cc1C(F)(F)F [Embodiment 12]
< 10,> 1,> 1,> 1,,,,,,,,,,100 to 1000,"CC(=O)Nc1cc(C(F)(F)F)cnc1N1CCN(C(=O)[C@H]2C[C@H](NC(C)(C)c3cc(C(F)(F)F)c(=O)[nH]n3)C2)CC1 [Embodiment 61, N-(2-(4-((1R,3R)-3-((2-(6-oxo-5-(trifluoromethyl)-1,6-dihydropyridazin-3-yl)propan-2-yl)amino)cyclobutane-1-carbonyl)piperazin-1-yl)-5-(trifluoromethyl)pyridin-3-yl)acetamide]"
< 10,> 1,> 1,> 1,,,,,,,,,,100 to 1000,"CC(=O)Nc1cc(C(F)(F)F)cnc1N1CCN(C(=O)[C@H]2C[C@H](NCc3cc(C(F)(F)F)c(=O)[nH]n3)C2)CC1 [Embodiment 63, N-(2-(4-((1R,3R)-3-(((6-oxo-5-(trifluoromethyl)-1,6-dihydropyridazin-3-yl)methyl)amino)cyclobutane-1-carbonyl)piperazin-1-yl)-5-(trifluoromethyl)pyridin-3-yl)acetamide]"
